From publication PMC6277375, “Pharmacological profile of the neuropeptide S receptor: Dynamic mass redistribution studies” (Pharmacology Research & Perspectives, 2018)
Marks after values point to notes of the source that are not given here. Square brackets hold non-standard residues; d marks the D form. Ends that are not written are not given here. Peptide text beside a SMILES is read from it. Bip = N[C@@H](Cc1ccc(-c2ccccc2)cc1)C(=O)O; Aib = CC(C)(N)C(=O)O

How the values were obtained:
[1] = target: T1, murine NPSR (Mus musculus, UniProt Q8BZP8); experiment: Dynamic mass redistribution (DMR) assay in HEK293mNPSR cells; assay type: cell-based; conditions: for Effect of inhibitor on NPS-evoked DMR response: FR900359 1 μmol L^−1 (60 minute before NPS), PTX 100 ng mL^−1 (24 hours before), rolipram 10 μmol L^−1 (90 minute before); for intrinsic activity α ± SEM / Agonist potency pEC50 (CL95%) / EC50: DMR; for DMR response, HEK293mNPSR pm ± SEM: peak at 60 minute, mean ± SEM, duplicate; for fold less potent than NPS (DMR): agonist potency relative to NPS; for Agonist potency pEC50 (CL95%) / EC50: agonism protocol, 60 minute recording, at least three experiments in duplicate; for EC50: read-out: Agonist potency pEC50 (CL95%) (converted)
T1 construct: expressed in transfected cells
T1 sequence (Q8BZP8 1-371): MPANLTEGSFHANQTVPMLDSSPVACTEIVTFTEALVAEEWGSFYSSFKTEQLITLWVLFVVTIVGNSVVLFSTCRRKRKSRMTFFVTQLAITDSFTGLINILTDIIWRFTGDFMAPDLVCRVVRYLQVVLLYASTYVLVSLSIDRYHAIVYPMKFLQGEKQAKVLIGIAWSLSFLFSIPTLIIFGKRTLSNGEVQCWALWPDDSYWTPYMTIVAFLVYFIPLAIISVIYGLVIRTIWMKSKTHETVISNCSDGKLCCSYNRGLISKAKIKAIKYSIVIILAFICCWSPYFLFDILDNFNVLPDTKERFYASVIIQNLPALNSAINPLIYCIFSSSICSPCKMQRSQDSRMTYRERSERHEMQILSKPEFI
Method: (§1) HEK293 cells stably expressing the murine NPSR receptor (HEK293mNPSR) were described previously.3 Wild‐type HEK293 cells were used as a control. Cells were maintained in Dulbecco's Medium (DMEM) supplemented with 10% fetal bovine serum, 100 U/mL penicillin, 100 μg/mL streptomycin and, 2 mmol L^−1 L‐glutamine. The medium was complemented with 100 mg/L hygromycin for HEK293mNPSR. Cells were cultured at 37°C in 5% CO2 humidified air.
Confluent cells were subcultured using trypsin/EDTA and used for experiments. […] On the day of the experiment, cells were manually washed twice and maintained with assay buffer for 90 minutes before DMR experiments. DMR was monitored in real time with a temporal resolution of 22 seconds throughout the assay. Experiments were performed at 37°C, using an EnSight Multimode Plate Reader (PerkinElmer), that uses the Corning® Epic® Technology to measure the DMR signal. Agonism protocol: a 5‐minute baseline was first established, followed by adding compounds manually in a volume of 10 μL and recording compounds‐triggered DMR signal for 60 minute. Antagonism protocol: antagonists were added manually 25 minute before reading the 5‐minute baseline. After baseline establishment, NPS was injected and DMR signal was recorded for 60 minute. Antagonist properties of ligands were measured by assessing the concentration‐response curve to NPS in the absence and in presence of a fixed concentration of compound. FR900359 was added 60 minute before NPS, rolipram was incubated for 90 minute before NPS, while PTX was added 24 hours before NPS. Maximum picometer (pm) modifications (peak measured at 60 minute time point) were used to determine agonist response after baseline normalization.
All data were analyzed using Graph Pad Prism 6.0 (La Jolla, CA, USA). Concentration‐response curves were fitted using the four parameters log logistic equation. Data are expressed as mean ± SEM of n experiments performed in duplicate and were analyzed using one‐ or two‐way analysis of variance (ANOVA) followed by Dunnett's or Tukey's test for multiple comparisons wherever appropriate. […] Antagonists potencies were assayed at single concentrations against the concentration‐response curve to NPS and their pA2 was derived using the following equation: pA2 = log(CR − 1) − log[A], where CR is the ratio between agonist potency (EC50) in the presence and in absence of antagonist and [A] is the molar concentration of antagonist.

[2] = system: wild-type HEK293 cells; experiment: DMR assay in wild-type HEK293 cells (control); assay type: cell-based, Human; conditions: mean ± SEM, duplicate
Method: as §1
Confluent cells were subcultured using trypsin/EDTA and used for experiments. Cells were seeded at a density of 20 000 cells/well in 30 μL into fibronectin‐coated Enspire™‐LC 384‐wells plates and cultured for 20 hours to form a confluent monolayer. On the day of the experiment, cells were manually washed twice and maintained with assay buffer for 90 minutes before DMR experiments. DMR was monitored in real time with a temporal resolution of 22 seconds throughout the assay. Experiments were performed at 37°C, using an EnSight Multimode Plate Reader (PerkinElmer), that uses the Corning® Epic® Technology to measure the DMR signal. Agonism protocol: a 5‐minute baseline was first established, followed by adding compounds manually in a volume of 10 μL and recording compounds‐triggered DMR signal for 60 minute. Antagonism protocol: antagonists were added manually 25 minute before reading the 5‐minute baseline. After baseline establishment, NPS was injected and DMR signal was recorded for 60 minute. Antagonist properties of ligands were measured by assessing the concentration‐response curve to NPS in the absence and in presence of a fixed concentration of compound. FR900359 was added 60 minute before NPS, rolipram was incubated for 90 minute before NPS, while PTX was added 24 hours before NPS. Maximum picometer (pm) modifications (peak measured at 60 minute time point) were used to determine agonist response after baseline normalization.
All data were analyzed using Graph Pad Prism 6.0 (La Jolla, CA, USA). Concentration‐response curves were fitted using the four parameters log logistic equation. Data are expressed as mean ± SEM of n experiments performed in duplicate and were analyzed using one‐ or two‐way analysis of variance (ANOVA) followed by Dunnett's or Tukey's test for multiple comparisons wherever appropriate. Agonist potency was expressed as pEC50, which is the negative logarithm to base 10 of the agonist molar concentration that produces 50% of the maximal possible effect of that agonist. Antagonists potencies were assayed at single concentrations against the concentration‐response curve to NPS and their pA2 was derived using the following equation: pA2 = log(CR − 1) − log[A], where CR is the ratio between agonist potency (EC50) in the presence and in absence of antagonist and [A] is the molar concentration of antagonist.

[3] = ligand 10 μmol L^−1, 37°C, peak at 60 minute after baseline normalization
[4] = ligand 1 μmol L^−1, 37°C, peak at 60 minute

Row | Compound | intrinsic activity α ± SEM ([1]; relative to NPS = 1.00, SEM) | DMR response, HEK293mNPSR pm ± SEM ([1]; ligand 10 μmol L^−1, 37°C) | DMR response, HEK293 pm ± SEM [2, 3] | Agonist potency pEC50 (CL95%) [1] | intrinsic activity α ± SEM ([1]; relative to NPS = 1.00) | further results
1 | Pertussis Toxin [PTX] | – | – | – | – | – | Effect of inhibitor on NPS-evoked DMR response [1]: did not modify NPS‐evoked DMR response
2 | SFRNGVATGMKKTSFQRAKS [[Ala^7]NPS] | 1.03 ± 0.03 | 692 ± 15 ^a pm | 115 ± 33 pm | – | – | –
3 | CSCC[C@H](NC(=O)CNC(=O)[C@@H](NC(=O)CNC(=O)[C@@H](NC(=O)CNC(=O)[C@H](CC(N)=O)NC(=O)[C@H](CCCNC(=N)N)NC(=O)[C@H](Cc1ccc(-c2ccccc2)cc1)NC(=O)[C@@H](N)CO)C(C)C)[C@@H](C)O)C(=O)N[C@@H](CCCCN)C(=O)N[C@@H](CCCCN)C(=O)N[C@H](C(=O)N[C@@H](CO)C(=O)N[C@@H](Cc1ccccc1)C(=O)N[C@@H](CCC(N)=O)C(=O)N[C@@H](CCCNC(=N)N)C(=O)N[C@@H](C)C(=O)N[C@@H](CCCCN)C(=O)N[C@@H](CO)C(=O)O)[C@@H](C)O [[Bip^2]NPS] (H-S[Bip]RNGVGTGMKKTSFQRAKS-OH; N-terminus and C-terminus assumed) | 1.01 ± 0.04 | 761 ± 60 ^a pm | 191 ± 30 ^a pm | – | – | fold less potent than NPS (DMR) [1]: approximately 30 fold; DMR response, HEK293mNPSR pm ± SEM ([1]; ligand 1 μmol L^−1, 37°C): 577 ± 2 ^a pm; DMR response, HEK293 pm ± SEM [2, 4]: 47 ± 16 pm
4 | NPS(3‐20): NPS fragment (RNGVGTGMKKTSFQRAKS; Neuropeptide S; UniProt P0C0P6 72-89, looked up, fragment) | – | 675 ± 54 ^a pm | 166 ± 14 ^a pm | crc incomplete | crc incomplete | DMR response, HEK293mNPSR pm ± SEM ([1]; ligand 1 μmol L^−1, 37°C): 315 ± 17 ^a pm; DMR response, HEK293 pm ± SEM [2, 4]: 41 ± 14 pm
5 | CSCC[C@H](NC(=O)CNC(=O)[C@@H](NC(=O)CNC(=O)[C@@H](NC(=O)[C@@H](C)NC(=O)[C@H](CC(N)=O)NC(=O)[C@H](CCCNC(=N)N)NC(=O)[C@H](Cc1ccccc1)NC(=O)[C@@H](N)CO)C(C)C)[C@@H](C)O)C(=O)N[C@@H](CCCCN)C(=O)N[C@@H](CCCCN)C(=O)N[C@H](C(=O)N[C@@H](CO)C(=O)N[C@@H](Cc1ccccc1)C(=O)N[C@@H](CCC(N)=O)C(=O)N[C@@H](CCCNC(=N)N)C(=O)N[C@@H](C)C(=O)N[C@@H](CCCCN)C(=O)N[C@@H](CO)C(=O)O)[C@@H](C)O [[D‐Ala^5]NPS] (H-SFRN[dA]VGTGMKKTSFQRAKS-OH; N-terminus and C-terminus assumed) | 1.09 ± 0.04 | 686 ± 50 ^a pm | 55 ± 14 pm | – | – | fold less potent than NPS (DMR) [1]: approximately 30 fold
6 | [D‐Val^5]NPS | – | – | – | Inactive | Inactive | –
7 | NPS(1‐6): NPS fragment (SFRNGV; Neuropeptide S; UniProt P0C0P6 70-75, looked up, fragment) | – | 356 ± 48 ^a pm | 25 ± 10 pm | crc incomplete | crc incomplete | –
8 | SFRNGVGTGMKKTSFQRAKS [NPS, Neuropeptide S] | – | – | – | – | – | EC50 [1]: 1.66 nM
9 | CSCC[C@H](NC(=O)CNC(=O)[C@@H](NC(=O)CNC(=O)[C@@H](NC(=O)C(C)(C)NC(=O)[C@H](CC(N)=O)NC(=O)[C@H](CCCNC(=N)N)NC(=O)[C@H](Cc1ccccc1)NC(=O)[C@@H](N)CO)C(C)C)[C@@H](C)O)C(=O)N[C@@H](CCCCN)C(=O)N[C@@H](CCCCN)C(=O)N[C@H](C(=O)N[C@@H](CO)C(=O)N[C@@H](Cc1ccccc1)C(=O)N[C@@H](CCC(N)=O)C(=O)N[C@@H](CCCNC(=N)N)C(=O)N[C@@H](C)C(=O)N[C@@H](CCCCN)C(=O)N[C@@H](CO)C(=O)O)[C@@H](C)O [[Aib^5]NPS] (H-SFRN[Aib]VGTGMKKTSFQRAKS-OH) | – | – | – | – | – | EC50 [1]: 145 nM
10 | COc1ccc(C2CNC(=O)C2)cc1OC1CCCC1 (centres unmarked) [rolipram, reference compound] | – | – | – | – | – | Effect of inhibitor on NPS-evoked DMR response [1]: did not change NPS effects
